The values that follow come from patent publication US11752149B2, “Muscarinic acetylcholine M1 receptor antagonists” (Pipeline Therapeutics, Inc., priority 2019, dated 2023).

As usually defined, the IC50 is the concentration that gives 50% inhibition.

Format in all cases: cell-based
One assay deals with human M3 receptor (Homo sapiens (Human), UniProt P20309). In words: Aequorin calcium flux assay, reversal of EC80 acetylcholine response, M3. As to the method:
(§1) CHO-K1 cells stably expressing human M1 receptor with aequorin (Perkin Elmer) were grown in F12 media (Gibco) containing 10% FBS (ATCC), 0.4 mg/mL geneticin (Sigma-Aldrich) and 0.25 mg/mL Zeocin (Invitrogen). Cells were grown as per the manufacturer's protocol. For compound testing, cells were grown to confluency and detached gently with Accutase (Sigma-Aldrich) followed by centrifugation for 5 min at 150×g. Cells were then re-suspended in assay buffer (i.e. DMEM/F-12 HEPES without phenol red (Invitrogen) with 0.1% BSA (Sigma-Aldrich)) at a density of 5×10^6 cells/ml. Under sterile conditions, 5 μM coelenterazine (Invitrogen) was added to the cells, mixed, then incubated at room temperature protected from light, with gentle agitation, for 4 h.
(§2) Primary compound plates were prepared in 100% DMSO in opaque 96-well plates (VWR) and serially diluted in half log increments. Secondary compound plates were prepared at 3× concentration in assay buffer. Compounds were added to white, clear bottom tissue culture treated 96-well plates (Fisher Scientific). Coelenterazine-loaded cells were then added at 5×10^5 cells/well.
(§3) Compounds and cells were incubated at room temperature for 30 min in the dark. Acetylcholine at the EC80 concentration was added and calcium flux measured using a FlexStation 3 (Molecular Devices). Sigmoidal dose-response curves were generated by measuring luminescence over 40 sec and calculating the area under the curve. Dose response curves and IC50 values were generated using Prism (GraphPad). Compounds were tested at a final concentration range of 100 pM to 10 μM in 0.1% DMSO.
(§4) CHO-K1 cells stably expressing human M2, M3 and M4 receptors, respectively, with aequorin (Perkin Elmer) were used to assess a test compound's ability to dose-dependently reverse the EC80 acetylcholine response. The IC50 of the compounds was calculated from the dose response curve.

For the next assay, the target named is human M1 receptor (Homo sapiens (Human), UniProt P11229). Nature of the assay: In vitro functional assay of muscarinic acetylcholine receptor activity, aequorin calcium flux, reversal of EC80 acetylcholine. As to the method: as §1, §2, §3
In general terms: Calcium flux is commonly read through the fluorescence of an indicator in the cells.

Another assay addresses human M2 receptor (Homo sapiens (Human), UniProt P08172). In words: Aequorin calcium flux assay, reversal of EC80 acetylcholine response, M2. As for the experimental part: as §1, §2, §3, §4
Another assay has as its target human M4 receptor (Homo sapiens (Human), UniProt P08173). In words: Aequorin calcium flux assay, reversal of EC80 acetylcholine response, M4. As to the method: as §1, §2, §3, §4
[1] abbreviates: CHO-K1 cells expressing human M1 receptor with aequorin, acetylcholine at EC80, read-out: M1 IC50.
[2] abbreviates: CHO-K1 cells expressing human M2 receptor with aequorin, acetylcholine at EC80, read-out: M2 IC50.

The structures appear in SMILES notation. Like-named read-outs stand apart in the source and are kept apart here.

Sequence of human M1 receptor (P11229 whole entry): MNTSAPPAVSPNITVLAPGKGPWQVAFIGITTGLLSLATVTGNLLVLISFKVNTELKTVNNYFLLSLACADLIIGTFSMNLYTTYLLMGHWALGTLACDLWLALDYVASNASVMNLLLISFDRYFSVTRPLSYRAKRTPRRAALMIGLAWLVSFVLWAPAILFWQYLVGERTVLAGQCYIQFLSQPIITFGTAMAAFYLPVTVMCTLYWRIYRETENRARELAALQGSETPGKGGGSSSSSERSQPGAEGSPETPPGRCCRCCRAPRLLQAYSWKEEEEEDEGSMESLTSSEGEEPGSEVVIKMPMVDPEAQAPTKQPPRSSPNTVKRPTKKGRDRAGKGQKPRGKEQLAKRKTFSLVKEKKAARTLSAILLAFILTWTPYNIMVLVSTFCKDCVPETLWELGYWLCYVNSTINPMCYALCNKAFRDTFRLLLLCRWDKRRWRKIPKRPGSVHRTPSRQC
Sequence of human M3 receptor (P20309 whole entry, looked up): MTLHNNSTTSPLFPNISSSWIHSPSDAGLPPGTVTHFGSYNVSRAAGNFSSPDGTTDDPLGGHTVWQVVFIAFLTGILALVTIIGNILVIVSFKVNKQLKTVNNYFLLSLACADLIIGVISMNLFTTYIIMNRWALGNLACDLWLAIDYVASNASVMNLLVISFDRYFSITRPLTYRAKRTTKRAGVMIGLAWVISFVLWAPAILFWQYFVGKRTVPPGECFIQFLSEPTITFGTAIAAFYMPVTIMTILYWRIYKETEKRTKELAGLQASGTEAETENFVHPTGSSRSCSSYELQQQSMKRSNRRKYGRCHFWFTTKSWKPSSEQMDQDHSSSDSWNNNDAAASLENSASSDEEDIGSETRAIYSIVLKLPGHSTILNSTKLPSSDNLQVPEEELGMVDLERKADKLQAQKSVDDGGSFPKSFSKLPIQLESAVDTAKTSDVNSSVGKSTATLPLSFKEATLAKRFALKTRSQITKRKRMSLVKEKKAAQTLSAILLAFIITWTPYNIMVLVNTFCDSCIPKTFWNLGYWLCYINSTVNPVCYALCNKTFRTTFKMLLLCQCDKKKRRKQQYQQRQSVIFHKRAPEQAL
Sequence of human M4 receptor (P08173 whole entry): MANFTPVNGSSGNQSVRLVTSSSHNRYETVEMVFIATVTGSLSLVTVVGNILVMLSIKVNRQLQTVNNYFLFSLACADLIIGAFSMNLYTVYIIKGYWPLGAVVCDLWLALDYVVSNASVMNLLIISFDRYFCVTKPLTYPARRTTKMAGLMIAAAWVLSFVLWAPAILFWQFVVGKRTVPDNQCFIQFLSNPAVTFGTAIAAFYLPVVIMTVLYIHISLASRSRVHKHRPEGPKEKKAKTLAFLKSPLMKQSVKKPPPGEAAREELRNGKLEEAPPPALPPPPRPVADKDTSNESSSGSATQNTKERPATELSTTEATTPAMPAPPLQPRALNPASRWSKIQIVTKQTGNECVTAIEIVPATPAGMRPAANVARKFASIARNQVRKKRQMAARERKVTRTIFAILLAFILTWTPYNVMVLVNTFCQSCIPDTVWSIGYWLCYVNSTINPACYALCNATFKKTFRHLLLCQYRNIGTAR
Sequence of human M2 receptor (P08172 whole entry): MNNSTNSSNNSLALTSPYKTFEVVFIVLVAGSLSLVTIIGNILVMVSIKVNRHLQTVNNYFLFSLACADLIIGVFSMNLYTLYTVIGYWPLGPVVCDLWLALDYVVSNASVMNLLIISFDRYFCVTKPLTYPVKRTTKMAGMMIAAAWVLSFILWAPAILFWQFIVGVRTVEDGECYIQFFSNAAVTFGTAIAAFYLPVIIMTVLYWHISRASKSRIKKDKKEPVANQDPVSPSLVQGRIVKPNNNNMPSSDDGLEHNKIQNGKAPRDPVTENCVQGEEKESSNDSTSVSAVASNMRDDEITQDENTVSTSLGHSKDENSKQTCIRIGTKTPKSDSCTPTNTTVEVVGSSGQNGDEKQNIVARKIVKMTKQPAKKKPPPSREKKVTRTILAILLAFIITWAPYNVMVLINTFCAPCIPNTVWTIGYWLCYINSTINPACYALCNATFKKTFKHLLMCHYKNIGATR

For the compound `N#Cc1ccc(N2C3CCC2CN(C(=O)CCS(=O)(=O)c2ccccc2[C@H]2CC2(F)F)C3)nc1` (single isomer, unassigned) [Example 35], the IC50 was 100 to 1000 nM on human M3 receptor (CHO-K1 cells expressing human M3 receptor with aequorin, acetylcholine at EC80, read-out: M3 IC50); below 10 nM on human M1 receptor (setting [1]); 10 to 100 nM at human M2 receptor; 10 to 100 nM at human M4 receptor (CHO-K1 cells expressing human M4 receptor with aequorin, acetylcholine at EC80, read-out: M4 IC50).
For the compound `COc1cccc(S(=O)(=O)CCC(=O)N2CC3CCC(C2)N3c2ccc(C#N)cn2)c1` [Example 2, 6-(3-(3-((3-methoxyphenyl)sulfonyl)propanoyl)-3,8-diazabicyclo[3.2.1]octan-8-yl)nicotinonitrile], the IC50 at human M3 receptor was 100 to 1000 nM; on human M1 receptor, 10 to 100 nM; at human M2 receptor (setting [2]), above 10000 nM; at human M4 receptor it was 100 to 1000 nM.
Regarding `COc1cc(S(=O)(=O)CCC(=O)N2CC3CCC(C2)N3c2ccc(C#N)cn2)ccc1F` [Example 3, 6-(3-(3-((4-fluoro-3-methoxyphenyl)sulfonyl)propanoyl)-3,8-diazabicyclo[3.2.1]octan-8-yl)nicotinonitrile], the IC50 is 100 to 1000 nM at human M3 receptor, below 10 nM on human M1 receptor (setting [1]), above 10000 nM at human M2 receptor (setting [2]) and 100 to 1000 nM at human M4 receptor.
For `COc1cc(S(=O)(=O)CCC(=O)N2CC3CCC(C2)N3c2ccc(C#N)cn2)ccn1` [Example 15, 6-(3-{3-[(2-methoxypyridin-4-yl)sulfonyl]propanoyl}-3,8-diazabicyclo[3.2.1]octan-8-yl)pyridine-3-carbonitrile], at human M1 receptor, the IC50 was in the range of 10 to 100 nM.
Same read-out and setting: with `COc1cccc(S(=O)(=O)CCC(=O)N2CC3CCC(C2)N3c2ccc(C(F)(F)F)cn2)c1` [Example 16, 3-(3-methoxybenzenesulfonyl)-1-{8-[5-(trifluoromethyl)pyridin-2-yl]-3,8-diazabicyclo[3.2.1]octan-3-yl}propan-1-one] the figure was 100 to 1000 nM; with `COc1cccc(S(=O)(=O)CCC(=O)N2CC3CCC(C2)N3c2ccc(C(F)(F)F)nn2)c1` [Example 17, 3-(3-methoxybenzenesulfonyl)-1-{8-[6-(trifluoromethyl)pyridazin-3-yl]-3,8-diazabicyclo[3.2.1]octan-3-yl}propan-1-one], 100 to 1000 nM.
Take `COc1cccc(S(=O)(=O)CCC(=O)N2CC3CCC(C2)N3c2ccc(C)cn2)c1` [Example 18, 3-(3-methoxybenzenesulfonyl)-1-[8-(5-methylpyridin-2-yl)-3,8-diazabicyclo[3.2.1]octan-3-yl]propan-1-one]: the IC50 at human M1 receptor (setting [1]) lay within 1000 to 10000 nM.
In the case of `COc1cccc(S(=O)(=O)CCC(=O)N2CC3CCC(C2)N3c2ccc(F)c(C#N)c2)c1` [Example 19, 2-fluoro-5-{3-[3-(3-methoxybenzenesulfonyl)propanoyl]-3,8-diazabicyclo [3.2.1]octan-8-yl}benzonitrile], the IC50 on human M1 receptor was in the range of 100 to 1000 nM.
The same measure, in the same setting: the value for `COc1cccc(S(=O)(=O)CCC(=O)N2CC3CCC(C2)N3c2ccc(C#N)c(F)c2)c1` [Example 20, 2-fluoro-4-{3-[3-(3-methoxybenzenesulfonyl)propanoyl]-3,8-diazabicyclo [3.2.1]octan-8-yl}benzonitrile] was 10 to 100 nM; that for `N#Cc1ccc(N2C3CCC2CN(C(=O)CCS(=O)(=O)c2cccc(OC4CC4)c2)C3)nc1` [Example 21, 6-{3-[3-(3-cyclopropoxybenzenesulfonyl)propanoyl]-3,8-diazabicyclo [3.2.1]octan-8-yl}pyridine-3-carbonitrile] was 100 to 1000 nM.
For `N#Cc1ccc(N2C3CCC2CN(C(=O)CCS(=O)(=O)c2cccc(Br)c2)C3)nc1` [Example 22, 6-{3-[3-(3-bromobenzenesulfonyl)propanoyl]-3,8-diazabicyclo [3.2.1]octan-8-yl}pyridine-3-carbonitrile], the IC50 on human M1 receptor was in the range of 100 to 1000 nM.
As for `N#Cc1ccc(N2C3CCC2CN(C(=O)CCS(=O)(=O)c2ncccc2C2CC2)C3)nc1` [Example 23, 6-(3-{3-[(3-cyclopropylpyridin-2-yl)sulfonyl]propanoyl}-3,8-diazabicyclo[3.2.1]octan-8-yl)pyridine-3-carbonitrile], the IC50 at human M1 receptor lay within 100 to 1000 nM.
Regarding `Cc1c(F)cccc1S(=O)(=O)CCC(=O)N1CC2CCC(C1)N2c1ccc(C#N)cn1` [Example 24, 6-{3-[3-(3-fluoro-2-methylbenzenesulfonyl)propanoyl]-3,8-diazabicyclo [3.2.1]octan-8-yl}pyridine-3-carbonitrile], the IC50 at human M3 receptor was 100 to 1000 nM; on human M1 receptor (setting [1]) it was below 10 nM; on human M2 receptor (setting [2]), 1000 to 10000 nM; on human M4 receptor it was 100 to 1000 nM.
Regarding `N#Cc1ccc(N2C3CCC2CN(C(=O)CCS(=O)(=O)c2ccnc(C4CC4)c2)C3)nc1` [Example 25, 6-(3-{3-[(2-cyclopropyl-pyridin-4-yl)sulfonyl]propanoyl}-3,8-diazabicyclo [3.2.1]octan-8-yl)pyridine-3-carbonitrile], the IC50 on human M1 receptor fell in the range of 100 to 1000 nM.
Same read-out and setting: with `N#Cc1ccc(N2C3CCC2CN(C(=O)CCS(=O)(=O)c2ccccc2C(F)F)C3)nc1` [Example 26, 6-(3-{3-[2-(difluoromethyl)benzene-sulfonyl]propanoyl}-3,8-diazabicyclo-[3.2.1]octan-8-yl)pyridine-3-carbonitrile] the figure was 100 to 1000 nM.
Still for that read-out and setting: with `N#Cc1ccc(N2C3CCC2CN(C(=O)CCS(=O)(=O)c2cccnc2C2CC2)C3)nc1` [Example 27, 6-(3-{3-[(2-cyclopropylpyridin-3-yl)sulfonyl]propanoyl}-3,8-diazabicyclo[3.2.1]octan-8-yl)pyridine-3-carbonitrile] the figure was 10 to 100 nM; with `N#Cc1ccc(N2C3CCC2CN(C(=O)CCS(=O)(=O)c2ccccc2Br)C3)nc1` [Example 28, 6-(3-(3-((2-bromophenyl)sulfonyl)propanoyl)-3,8-diazabicyclo [3.2.1]octan-8-yl)nicotinonitrile], 100 to 1000 nM.
For the compound `N#Cc1ccc(N2C3CCC2CN(C(=O)CCS(=O)(=O)c2ccccc2C(F)(F)F)C3)nc1` [Example 29, 6-(3-(3-((2-(trifluoromethyl)phenyl)sulfonyl)propanoyl)-3,8-diazabicyclo[3.2.1]octan-8-yl)nicotinonitrile], the IC50 at human M1 receptor was 100 to 1000 nM.
Same read-out and setting: with `N#Cc1ccc(N2C3CCC2CN(C(=O)CCS(=O)(=O)c2ccccc2OC(F)(F)F)C3)nc1` [Example 30, 6-(3-(3-((2-(trifluoromethoxy)phenyl)sulfonyl)propanoyl)-3,8-diazabicyclo-[3.2.1]octan-8-yl)nicotinonitrile] the figure was 100 to 1000 nM; with `CC(F)(F)c1ccccc1S(=O)(=O)CCC(=O)N1CC2CCC(C1)N2c1ccc(C#N)cn1` [Example 31, 6-(3-(3-((2-(1,1-difluoroethyl)phenyl)sulfonyl)propanoyl)-3,8-diazabicyclo [3.2.1]octan-8-yl)nicotinonitrile], 100 to 1000 nM; with `Cc1ccc(F)cc1S(=O)(=O)CCC(=O)N1CC2CCC(C1)N2c1ccc(C#N)cn1` [Example 32, 6-(3-(3-((5-fluoro-2-methylphenyl)sulfonyl)propanoyl)-3,8-diazabicyclo [3.2.1]octan-8-yl)nicotinonitrile], 100 to 1000 nM.
On the same count and under the same terms, with `Cc1cc(F)cc(S(=O)(=O)CCC(=O)N2CC3CCC(C2)N3c2ccc(C#N)cn2)c1` [Example 33, 6-(3-(3-((3-fluoro-5-methylphenyl)sulfonyl)propanoyl)-3,8-diazabicyclo [3.2.1]octan-8-yl)nicotinonitrile] the figure was 100 to 1000 nM.
